The target in the assay is T1, human PD-1 / PD-L1-Ig binding on Jurkat cell line over-expressing human PD-1 (Jurkat-PD-1) (Homo sapiens, UniProt Q15116).
T1 construct: expressed in transfected cells; host or cells: Jurkat
In words: Jurkat-PD-1 Cell Binding High-Content Screening Assay (CBA). In kind it is cell-based. Particulars: PE-labeled PD-L1-Ig 20 nM final. In a few lines:
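Cell-bound PE-labeled PD-L1-Ig (20 nM final, 1 h) measured by high-content imaging after fixation and Hoechst 33342 counterstain. Compound was applied first for 2 h at 37° C. to Jurkat cells over-expressing human PD-1 in DMEM with 10% FCS.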

[1] abbreviates: Jurkat-PD-1 cells, read-out: Jurkat HPD1_PDL1 IC50.

Like-named read-outs stand apart in the source and are kept apart here. Where a SMILES comes first, the peptide text is derived from it. Bridges are numbered along the chain shown (N, C = ends). [ ]: non-standard residue; d: D form. The star is where a group is joined. ξ: configuration not given here. Phe(4-COOH) = N[C@@H](Cc1ccc(C(=O)O)cc1)C(=O)O; Bip = N[C@@H](Cc1ccc(-c2ccccc2)cc1)C(=O)O; Phe(3-Me) = Cc1cccc(C[C@H](N)C(=O)O)c1; Phe(4-F) = N[C@@H](Cc1ccc(F)cc1)C(=O)O; Phe(2-F) = N[C@@H](Cc1ccccc1F)C(=O)O; Val(3-OH) = CC(C)(O)[C@H](N)C(=O)O; 4Pal = N[C@@H](Cc1ccncc1)C(=O)O; Cha = N[C@@H](CC1CCCCC1)C(=O)O; Ile(3ξ) = CCC(C)[C@H](N)C(=O)O; Carboxymethyl = O=C(O)C*; Orn = NCCC[C@H](N)C(=O)O; dDap = NC[C@@H](N)C(=O)O; Dab = NCC[C@H](N)C(=O)O; Dap = NC[C@H](N)C(=O)O

The results in this text go back to US20250163104A1, “MACROCYCLIC IMMUNOMODULATORS” (priority 2021, published 2025).

T1 sequence (Q15116 25-288): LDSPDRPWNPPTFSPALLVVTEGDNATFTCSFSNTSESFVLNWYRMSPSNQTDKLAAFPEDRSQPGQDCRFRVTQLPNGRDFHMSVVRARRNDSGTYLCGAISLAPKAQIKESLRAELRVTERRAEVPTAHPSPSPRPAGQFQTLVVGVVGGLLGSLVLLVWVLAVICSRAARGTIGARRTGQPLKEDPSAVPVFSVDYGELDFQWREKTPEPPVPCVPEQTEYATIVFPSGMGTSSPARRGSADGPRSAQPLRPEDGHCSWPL

Take `CC(C)C[C@@H]1NC(=O)[C@H](Cc2c[nH]c3ccccc23)NC(=O)[C@H](CC(=O)O)NC(=O)[C@H](Cc2ccc(O)cc2)NC(=O)[C@H](Cc2ccccc2)NC(=O)CSC[C@@H](C(=O)N[C@@H](C)C(N)=O)NC(=O)[C@H](CO)NC(=O)[C@H](C(C)C)NC(=O)[C@H](CC(C)C)NC(=O)[C@H](CC(N)=O)NC(=O)[C@@H](C)NC(=O)[C@@H](CN)NC(=O)[C@H](C(C)C)NC(=O)[C@H](Cc2ccc(-c3ccccc3)cc2)NC1=O` [Compound 2002] ({CH2CO}-FYDWL[Bip]V[dDap][dA]NLVSCA-NH2; thioether N-14): the IC50 under setting [1] is 54.1 nM. Take `CC(C)C[C@H]1NC(=O)[C@H](CCCN)NC(=O)[C@H](CCC(=O)O)NC(=O)[C@H](Cc2ccc(-c3ccccc3)cc2)NC(=O)[C@H](C(C)C)NC(=O)[C@H](Cc2ccccc2F)NC(=O)[C@H](CC(=O)O)NC(=O)[C@H](Cc2ccncc2)NC(=O)[C@H](Cc2ccncc2)NC(=O)CSC[C@@H](C(=O)N[C@@H](C)C(N)=O)NC(=O)[C@H]([C@@H](C)O)NC(=O)[C@H](C(C)C)NC(=O)[C@H](CC2CCCCC2)NC(=O)[C@H](CCN)NC1=O` [Compound 2211] ({CH2CO}-[4Pal][4Pal]D[Phe(2-F)]V[Bip]E[Orn][dL][Dab][Cha]VTCA-NH2; thioether N-14): under setting [1], the IC50 was found to be 20.3 nM. The same measure, in the same setting: for `Cc1cccc(C[C@@H]2NC(=O)[C@H](CC(=O)O)NC(=O)[C@H](Cc3ccc(OCC(=O)O)cc3)NC(=O)[C@H](CCCNC(=N)N)NC(=O)CSC[C@@H](C(N)=O)NC(=O)[C@H]([C@@H](C)O)NC(=O)[C@H](C(C)C)NC(=O)[C@H](CC3CCCCC3)NC(=O)[C@H](CCN)NC(=O)[C@@H](CC(C)C)NC(=O)[C@H](CCCN)NC(=O)[C@H](CCCN)NC(=O)[C@H](Cc3ccc(-c4ccccc4)cc3)NC(=O)[C@H](Cc3ccc(O)cc3)NC2=O)c1` [Compound 2055] ({CH2CO}-RY(Carboxymethyl)D[Phe(3-Me)]Y[Bip][Orn][Orn][dL][Dab][Cha]VTC-NH2; thioether N-14) the value was 97.3 nM. Consider `Cc1cccc(C[C@@H]2NC(=O)[C@H](CC(=O)O)NC(=O)[C@H](Cc3ccc(OCC(=O)O)cc3)NC(=O)[C@H](CN)NC(=O)CSC[C@@H](C(N)=O)NC(=O)[C@H](CCC(N)=O)NC(=O)[C@H](C(C)C)NC(=O)[C@H](CC3CCCCC3)NC(=O)[C@H](CCN)NC(=O)[C@@H](CC(C)C)NC(=O)[C@H](CCCN)NC(=O)[C@H](Cc3ccc(OCC(=O)O)cc3)NC(=O)[C@H](Cc3ccc(-c4ccccc4)cc3)NC(=O)[C@H](Cc3ccc(OCC(=O)O)cc3)NC2=O)c1` [Compound 1782] ({CH2CO}-[Dap]Y(Carboxymethyl)D[Phe(3-Me)]Y(Carboxymethyl)[Bip]Y(Carboxymethyl)[Orn][dL][Dab][Cha]VQC-NH2; thioether N-14), for which the concentration for half-maximal inhibition (IC50) under setting [1] was 23.6 nM.

Turning to `CC[C@H](C)[C@@H]1NC(=O)[C@H](Cc2ccc(-c3ccccc3)cc2)NC(=O)[C@H](C(C)C)NC(=O)[C@H](Cc2c[nH]c3ccccc23)NC(=O)[C@H](CC(=O)O)NC(=O)[C@H](Cc2ccc(O)cc2)NC(=O)[C@H](CC(N)=O)NC(=O)CSC[C@@H](C(=O)N[C@@H](C)C(N)=O)NC(=O)[C@H](CO)NC(=O)[C@H](C(C)C)NC(=O)[C@H](CC(C)C)NC(=O)[C@H](CCN)NC(=O)[C@@H](CC(C)C)NC(=O)[C@H](CCN)NC1=O` [Compound 1120] ({CH2CO}-NYDWV[Bip]I[Dab][dL][Dab]LVSCA-NH2; thioether N-14), the IC50 under setting [1] was found to be 11.5 nM.

Turning to `CC(C)C[C@@H]1NC(=O)[C@H](CCN)NC(=O)[C@@H](CC(C)C)NC(=O)[C@H](CCCN)NC(=O)[C@H](C(C)C)NC(=O)[C@H](Cc2ccc(-c3ccccc3)cc2)NC(=O)[C@H](C(C)C)NC(=O)[C@H](Cc2c[nH]c3ccccc23)NC(=O)[C@H](CC(N)=O)NC(=O)[C@H](Cc2ccc(O)cc2)NC(=O)[C@H](CN)NC(=O)CSC[C@@H](C(=O)N[C@@H](C)C(N)=O)NC(=O)[C@H]([C@@H](C)O)NC(=O)[C@H](C(C)C)NC1=O` [Compound 1087] ({CH2CO}-[Dap]YNWV[Bip]V[Orn][dL][Dab]LVTCA-NH2; thioether N-14), the IC50 under setting [1] was determined as 36.6 nM.

For the molecule `CC(C)C[C@@H]1NC(=O)[C@H](CCCCN)NC(=O)[C@@H](CC(C)C)NC(=O)[C@H](CCCN)NC(=O)[C@H](Cc2cnc[nH]2)NC(=O)[C@H](Cc2ccc(-c3ccccc3)cc2)NC(=O)[C@H](C(C)C)NC(=O)[C@H](Cc2c[nH]c3ccccc23)NC(=O)[C@H](CC(=O)O)NC(=O)[C@H](Cc2ccc(O)cc2)NC(=O)[C@H](CC(N)=O)NC(=O)CSC[C@@H](C(=O)NCC(N)=O)NC(=O)[C@H](CO)NC(=O)[C@H](C(C)C)NC1=O` [Compound 1135] ({CH2CO}-NYDWV[Bip]H[Orn][dL]KLVSCG-NH2; thioether N-14), the IC50 under setting [1] is 13 nM. Take `Cc1cccc(C[C@@H]2NC(=O)[C@H](CC(=O)O)NC(=O)[C@H](Cc3ccc(F)cc3)NC(=O)[C@H](Cc3ccncc3)NC(=O)CSC[C@@H](C(=O)N[C@@H](CCN)C(N)=O)NC(=O)[C@H](Cc3c[nH]cn3)NC(=O)[C@H](C(C)(C)O)NC(=O)[C@H](CC3CCCCC3)NC(=O)[C@H](CCN)NC(=O)[C@@H](CC(C)C)NC(=O)[C@H](CCCN)NC(=O)[C@H](Cc3ccc(OCC(=O)O)cc3)NC(=O)[C@H](Cc3ccc(-c4ccccc4)cc3)NC(=O)[C@H](Cc3ccc(OCC(=O)O)cc3)NC2=O)c1` [Compound 2672] ({CH2CO}-[4Pal][Phe(4-F)]D[Phe(3-Me)]Y(Carboxymethyl)[Bip]Y(Carboxymethyl)[Orn][dL][Dab][Cha][Val(3-OH)]HC[Dab]-NH2; thioether N-14): the IC50 under setting [1] turned out to be 488 nM.

In the case of `CC(C)C[C@H]1NC(=O)[C@H](CCCN)NC(=O)[C@H](CCC(=O)O)NC(=O)[C@H](Cc2ccc(-c3ccccc3)cc2)NC(=O)[C@H](C(C)C)NC(=O)[C@H](Cc2cccc(C(F)(F)F)c2)NC(=O)[C@H](CC(=O)O)NC(=O)[C@H](Cc2ccc(C(=O)O)cc2)NC(=O)[C@H](Cc2ccc(OCC(=O)O)cc2)NC(=O)CSC[C@@H](C(=O)N[C@@H](C)C(N)=O)NC(=O)[C@H]([C@@H](C)O)NC(=O)[C@H](C(C)C)NC(=O)[C@H](CC2CCCCC2)NC(=O)[C@H](CCN)NC1=O` [Compound 1461], under setting [1], the IC50 was determined as 13.6 nM. `CCC[C@@H]1NC(=O)[C@H](Cc2ccc(-c3ccccc3)cc2)NC(=O)[C@H](C(C)C)NC(=O)[C@H](Cc2cccc(C)c2)NC(=O)[C@H](CC(=O)O)NC(=O)[C@H](Cc2ccc(C(=O)O)cc2)NC(=O)[C@H](Cc2ccncc2)NC(=O)CSC[C@@H](C(=O)N[C@@H](C)C(N)=O)NC(=O)[C@H]([C@@H](C)O)NC(=O)[C@H](C(C)C)NC(=O)[C@H](CC2CCCCC2)NC(=O)[C@H](CCN)NC(=O)[C@@H](CC(C)C)NC(=O)[C@H](CCCN)NC1=O` [Compound 1615]: under setting [1], the IC50 was 15.9 nM. Consider `CC(C)C[C@H]1NC(=O)[C@H](CCCN)NC(=O)[C@H](CCC(=O)O)NC(=O)[C@H](Cc2ccc(-c3ccccc3)cc2)NC(=O)[C@H](C(C)C)NC(=O)[C@H](Cc2ccccc2F)NC(=O)[C@H](CC(=O)O)NC(=O)[C@H](Cc2ccc(OCC(=O)O)cc2)NC(=O)[C@H](CN)NC(=O)CSC[C@@H](C(=O)N[C@@H](C)C(N)=O)NC(=O)[C@H]([C@@H](C)O)NC(=O)[C@H](C(C)C)NC(=O)[C@H](CC2CCCCC2)NC(=O)[C@H](CCN)NC1=O` [Compound 2150], for which the IC50 under setting [1] stood at 7.5 nM. Turning to `CC(C)C[C@H]1NC(=O)[C@H](CCCN)NC(=O)[C@H](CN)NC(=O)[C@H](Cc2ccc(-c3ccccc3)cc2)NC(=O)[C@H](C(C)C)NC(=O)[C@H](Cc2c[nH]c3ccccc23)NC(=O)[C@H](CC(=O)O)NC(=O)[C@H](Cc2ccc(OCC(=O)O)cc2)NC(=O)[C@H](Cc2ccncc2)NC(=O)CSC[C@@H](C(=O)N[C@@H](C)C(N)=O)NC(=O)[C@H]([C@@H](C)O)NC(=O)[C@H](C(C)C)NC(=O)[C@H](CC2CCCCC2)NC(=O)[C@H](CCN)NC1=O` [Compound 1372], the IC50 (Jurkat HPD1_PDL1 IC50, Jurkat-PD-1 cells) was 12.6 nM. As for `Cc1cccc(C[C@@H]2NC(=O)[C@H](CC(=O)O)NC(=O)[C@H](Cc3ccc(OCC(=O)O)cc3)NC(=O)[C@H](CCN)NC(=O)CSC[C@@H](C(=O)N[C@@H](CCN)C(N)=O)NC(=O)[C@H](CO)NC(=O)[C@H](C(C)(C)O)NC(=O)[C@H](CC3CCCCC3)NC(=O)[C@H](Cc3cnc[nH]3)NC(=O)[C@@H](CC(C)C)NC(=O)[C@H](CCCN)NC(=O)[C@H](Cc3ccc(OCC(=O)O)cc3)NC(=O)[C@H](Cc3ccc(-c4ccccc4)cc3)NC(=O)[C@H](Cc3ccc(OCC(=O)O)cc3)NC2=O)c1` [Compound 2653] ({CH2CO}-[Dab]Y(Carboxymethyl)D[Phe(3-Me)]Y(Carboxymethyl)[Bip]Y(Carboxymethyl)[Orn][dL]H[Cha][Val(3-OH)]SC[Dab]-NH2; thioether N-14), the IC50 under setting [1] was 7.6 nM. On the same count and under the same terms, for `CCC(C)[C@@H]1NC(=O)[C@H](Cc2ccc(-c3ccccc3)cc2)NC(=O)[C@H](C(C)C)NC(=O)[C@H](Cc2cccc(C)c2)NC(=O)[C@H](CC(=O)O)NC(=O)[C@H](Cc2ccc(C(=O)O)cc2)NC(=O)[C@H](Cc2ccncc2)NC(=O)CSC[C@@H](C(N)=O)NC(=O)[C@H](CCC(=O)O)NC(=O)[C@H](C(C)C)NC(=O)[C@H](CC2CCCCC2)NC(=O)[C@H](CCN)NC(=O)[C@@H](CC(C)C)NC(=O)[C@H](CCCN)NC1=O` (stereo partly drawn) [Compound 2277] ({CH2CO}-[4Pal][Phe(4-COOH)]D[Phe(3-Me)]V[Bip][Ile(3ξ)][Orn][dL][Dab][Cha]VEC-NH2; thioether N-14) the value was 32.6 nM. On the same count and under the same terms, for `CC(C)C[C@H]1NC(=O)[C@H](CCCN)NC(=O)[C@H](CCC(=O)O)NC(=O)[C@H](Cc2ccc(-c3ccccc3)cc2)NC(=O)[C@H](C(C)C)NC(=O)[C@H](Cc2c[nH]c3ccccc23)NC(=O)[C@H](CC(=O)O)NC(=O)[C@H](Cc2ccc(-c3ccc(C(=O)O)cc3)cc2)NC(=O)[C@H](Cc2ccc(OCC(=O)O)cc2)NC(=O)CSC[C@@H](C(=O)N[C@@H](C)C(N)=O)NC(=O)[C@H]([C@@H](C)O)NC(=O)[C@H](C(C)C)NC(=O)[C@H](CC2CCCCC2)NC(=O)[C@H](CCN)NC1=O` [Compound 2168] the value was 19.6 nM.

By IC50 is commonly meant the concentration needed to halve the response being measured.
